The values that follow come from patent US7595401B2, “Therapeutic compounds and their use in cancer” (Myriad Pharmaceuticals, Inc., priority 2006, dated 2009).

This test deals with Luciferase refolding. Kind of test: Luciferase refolding assay. It counts as biochemical. Details: key: *Compound is active in Luciferase refolding assay. Conditions: compound fluorescent in FP binding assay.
Take `Nc1ncn(CCC2(F)C(F)(F)C(F)(F)C(F)(F)C(F)(F)C2(F)F)c2nc(Sc3cc4c(cc3Br)OCO4)nc1-2` [Example 377, 8-[(6-Bromo-1,3-benzodioxol-5-yl)thio]-3-[2-(undecafluorocyclohexyl)ethyl]-3H-purin-6-amine]: the “active in Luciferase refolding assay (asterisk footnote)” value (from here on “active in Luciferase refolding assay”) is “*Fluorescent”.

Take `COc1ccc(OC)c(Sc2nc3c(N)ncnc3n2CCC(NC(=O)OC(C)(C)C)C2CC2)c1` (stereo not drawn) [Example 664, tert-Butyl(3-{6-amino-8-[(2,5-dimethoxyphenyl)thio]-9H-purin-9-yl}-1-cyclopropylpropyl)carbamate]: the “active in Luciferase refolding assay” value is given as “*Fluorescent”.

For `CC(C)NC(=O)NC(CCn1c(Sc2cc3c(cc2Br)OCO3)nc2c(N)ncnc21)C1CC1` (stereo not drawn) [Example 678, N-(3-{6-Amino-8-[(6-bromo-1,3-benzodioxol-5-yl)thio]-9H-purin-9-yl}-1-cyclopropylpropyl)-N′-isopropylurea], the “active in Luciferase refolding assay” value is on record as “*Fluorescent”.
